The target of this data set is hERG (Homo sapiens, UniProt Q12809). Nature of the data set: Patch clamp assay (hERG tail currents, whole-cell).

Each structure is given as a SMILES string.

Sequence of hERG (Q12809 whole entry): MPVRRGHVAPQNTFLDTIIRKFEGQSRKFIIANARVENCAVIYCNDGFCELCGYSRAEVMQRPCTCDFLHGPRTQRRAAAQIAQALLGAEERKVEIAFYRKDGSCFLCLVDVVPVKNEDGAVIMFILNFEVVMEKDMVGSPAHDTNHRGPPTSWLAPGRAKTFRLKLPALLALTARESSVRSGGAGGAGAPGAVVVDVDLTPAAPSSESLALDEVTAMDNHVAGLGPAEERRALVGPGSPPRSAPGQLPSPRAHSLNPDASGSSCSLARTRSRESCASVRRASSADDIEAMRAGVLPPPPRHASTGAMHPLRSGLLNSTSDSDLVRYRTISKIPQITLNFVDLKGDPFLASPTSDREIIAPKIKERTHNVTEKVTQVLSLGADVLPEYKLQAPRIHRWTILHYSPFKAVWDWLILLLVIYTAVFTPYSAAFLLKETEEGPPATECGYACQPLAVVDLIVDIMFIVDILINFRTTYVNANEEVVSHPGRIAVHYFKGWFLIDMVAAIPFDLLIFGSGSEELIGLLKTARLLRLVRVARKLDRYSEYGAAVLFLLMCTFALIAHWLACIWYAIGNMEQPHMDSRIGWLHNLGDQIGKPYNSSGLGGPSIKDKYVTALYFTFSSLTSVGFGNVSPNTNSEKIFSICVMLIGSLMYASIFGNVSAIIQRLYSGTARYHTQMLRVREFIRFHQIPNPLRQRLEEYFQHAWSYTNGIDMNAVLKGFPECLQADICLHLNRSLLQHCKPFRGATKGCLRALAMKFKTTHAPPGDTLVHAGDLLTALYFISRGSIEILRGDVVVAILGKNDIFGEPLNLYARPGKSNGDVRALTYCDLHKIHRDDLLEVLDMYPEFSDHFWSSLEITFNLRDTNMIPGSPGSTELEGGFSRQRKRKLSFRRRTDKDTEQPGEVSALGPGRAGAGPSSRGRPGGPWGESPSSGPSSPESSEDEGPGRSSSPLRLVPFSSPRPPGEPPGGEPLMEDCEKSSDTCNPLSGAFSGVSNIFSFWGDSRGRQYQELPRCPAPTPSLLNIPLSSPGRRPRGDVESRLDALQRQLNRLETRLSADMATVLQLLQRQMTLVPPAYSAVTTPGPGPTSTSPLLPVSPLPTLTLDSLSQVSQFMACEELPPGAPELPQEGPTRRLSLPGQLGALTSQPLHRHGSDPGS
Procedure: The 35 mm culture dishes upon which cells were seeded at a density allowing single cells to be recorded were placed on the dish holder of the microscope and continuously perfused (at approximately 1 mL/min) with the bath solution described in section 4.6. All solutions applied to cells including the pipette solution were maintained at room temperature (19° C. to 30° C.). After formation of a Gigaohm seal between the patch electrodes and individual hERG stably transfected HEK 293 cells (pipette resistance range: 2.0 MS to 7.0 MS; seal resistance range: >1GΩ) the cell membrane across the pipette tip was ruptured to assure electrical access to the cell interior (whole-cell patch-configuration). In case the quality of the seal was poor, the process of seal formation was repeated with a different cell and a new pipette. As soon as a stable seal could be established, hERG outward tail currents were measured upon depolarization of the cell membrane to +20 mV for 2 s (activation of channels) from a holding potential of −80 mV and upon subsequent repolarization to −40 mV for 3 s. This voltage protocol (as shown below) was run at least 10 times at intervals of 10 s. If current density was judged to be too low for measurement, another cell was recorded.
During wash-in of the test item the voltage protocol indicated above was run continuously again at 10 s intervals until the steady-state level of block was reached.
The IC50 was determined by fitting the dose response curve with a 2-parameter logistic function (amax=100%).

With `CCNS(=O)(=O)N[C@H]1CC[C@H](CN2CCC3(CC2)CN(c2ncnnc2Oc2ccc(F)cc2C(=O)N(CC(F)(F)F)C(C)C)C3)OC1` (stereo in doubt) [Example 193, 2-((5-(7-(((2R,5S)-5-((N-Ethylsulfamoyl)amino)tetrahydro-2H-pyran-2-yl)methyl)-2,7-diazaspiro[3.5]nonan-2-yl)-1,2,4-triazin-6-yl)oxy)-5-fluoro-N-isopropyl-N-(2,2,2-trifluoroethyl)benzamide], under “30 μM compound”, the “hERG % Remaining” value is reported as “+++ (≥66%)”.
On to `CCN(C(=O)c1cc(F)ccc1Oc1cncnc1N1CC2(CCN(C[C@@H]3CC[C@@H](NC(=O)OC(C)(C)C)CO3)CC2)C1)C(C)C` [Example 11, tert-Butyl ((3R,6S)-6-((2-(5-(2-(ethyl(isopropyl)carbamoyl)-4-fluorophenoxy)pyrimidin-4-yl)-2,7-diazaspiro[3.5]nonan-7-yl)methyl)tetrahydro-2H-pyran-3-yl)carbamate], for which the “hERG % Remaining” value reads like this: (10 μM compound) “+ (<33%)”; (30 μM compound) “+ (<33%)”.
`CCN(C(=O)c1cc(F)ccc1Oc1cncnc1N1CC2(CCN(C[C@@H]3CC[C@@H](NC(=O)NCC(F)(F)F)CO3)CC2)C1)C(C)C` [Example 37, N-Ethyl-5-fluoro-N-isopropyl-2-((4-(7-(((2S,5R)-5-(3-(2,2,2-trifluoroethyl)ureido)tetrahydro-2H-pyran-2-yl)methyl)-2,7-diazaspiro[3.5]nonan-2-yl)pyrimidin-5-yl)oxy)benzamide]: the “hERG % Remaining” value is, setting by setting: (10 μM compound) “+ (<33%)”; (30 μM compound) “+ (<33%)”.
In the case of `CCN(C(=O)c1cc(F)ccc1Oc1cncnc1N1CC2(CCN(C[C@@H]3CC[C@@H](NS(=O)(=O)c4ccccn4)CO3)CC2)C1)C(C)C` [Example 58, N-ethyl-5-fluoro-N-isopropyl-2-((4-(7-(((2S,5R)-5-(pyridine-2-sulfonamido)tetrahydro-2H-pyran-2-yl)methyl)-2,7-diazaspiro[3.5]nonan-2-yl)pyrimidin-5-yl)oxy)benzamide], the “hERG % Remaining” value is “+++ (≥66%)” (10 μM compound); “++ (233% and ≤66%)” (30 μM compound).
In the case of `CCN(C(=O)c1cc(F)ccc1Oc1cncnc1N1CC2(CCN(C[C@@H]3CC[C@@H](NS(=O)(=O)c4ccccc4Cl)CO3)CC2)C1)C(C)C` [Example 59, 2-((4-(7-(((2S,5R)-5-((2-Chlorophenyl)sulfonamido)tetrahydro-2H-pyran-2-yl)methyl)-2,7-diazaspiro[3.5]nonan-2-yl)pyrimidin-5-yl)oxy)-N-ethyl-5-fluoro-N-isopropylbenzamide], the “hERG % Remaining” value (10 μM compound) is recorded as “+ (<33%)” and the “hERG % Remaining” value (30 μM compound) is recorded as “+ (<33%)”.
`CCN(C(=O)c1cc(F)ccc1Oc1cncnc1N1CC2(CCN(C[C@@H]3CC[C@@H](NS(=O)(=O)c4ccc(OC)cc4)CO3)CC2)C1)C(C)C` [Example 62, N-Ethyl-5-fluoro-N-isopropyl-2-((4-(7-(((2S,5R)-5-((4-methoxyphenyl)sulfonamido)tetrahydro-2H-pyran-2-yl)methyl)-2,7-diazaspiro[3.5]nonan-2-yl)pyrimidin-5-yl)oxy)benzamide]: the “hERG % Remaining” value is “+ (<33%)” (10 μM compound) and “+ (<33%)” (30 μM compound).
With `CCN(C(=O)c1cc(F)ccc1Oc1cncnc1N1CC2(CCN(C[C@@H]3CC[C@@H](NS(=O)(=O)c4cccnc4)CO3)CC2)C1)C(C)C` [Example 63, N-Ethyl-5-fluoro-N-isopropyl-2-((4-(7-(((2S,5R)-5-(pyridine-3-sulfonamido)tetrahydro-2H-pyran-2-yl)methyl)-2,7-diazaspiro[3.5]nonan-2-yl)pyrimidin-5-yl)oxy)benzamide], the “hERG % Remaining” value (10 μM compound) was “+++ (≥66%)”; the “hERG % Remaining” value (30 μM compound) was “++ (233% and ≤66%)”.
Turning to `CCN(C(=O)c1cc(F)ccc1Oc1cncnc1N1CC2(CCN(C[C@@H]3CC[C@@H](NS(=O)(=O)N4CCOCC4)CO3)CC2)C1)C(C)C` [Example 64, N-Ethyl-5-fluoro-N-isopropyl-2-((4-(7-(((2S,5R)-5-(morpholine-4-sulfonamido)tetrahydro-2H-pyran-2-yl)methyl)-2,7-diazaspiro[3.5]nonan-2-yl)pyrimidin-5-yl)oxy)benzamide], the “hERG % Remaining” value was “+++ (≥66%)” (10 μM compound); “++ (233% and ≤66%)” (30 μM compound).
For the compound `CCN(C(=O)c1cc(F)ccc1Oc1cncnc1N1CC2(CCN(C[C@@H]3CC[C@@H](NS(=O)(=O)c4ccccc4OC)CO3)CC2)C1)C(C)C` [Example 65, N-Ethyl-5-fluoro-N-isopropyl-2-((4-(7-(((2S,5R)-5-((2-methoxyphenyl)sulfonamido)tetrahydro-2H-pyran-2-yl)methyl)-2,7-diazaspiro[3.5]nonan-2-yl)pyrimidin-5-yl)oxy)benzamide], the “hERG % Remaining” value by setting is: (10 μM compound) “++ (233% and ≤66%)”; (30 μM compound) “+ (<33%)”.
In the case of `CCN(C(=O)c1cc(F)ccc1Oc1cncnc1N1CC2(CCN(C[C@@H]3CC[C@@H](NS(=O)(=O)c4cccc(OC)c4)CO3)CC2)C1)C(C)C` [Example 66, N-Ethyl-5-fluoro-N-isopropyl-2-((4-(7-(((2S,5R)-5-((3-methoxyphenyl)sulfonamido)tetrahydro-2H-pyran-2-yl)methyl)-2,7-diazaspiro[3.5]nonan-2-yl)pyrimidin-5-yl)oxy)benzamide], the “hERG % Remaining” value is, setting by setting: (10 μM compound) “+ (<33%)”; (30 μM compound) “+ (<33%)”.
Regarding `CCN(C(=O)c1cc(F)ccc1Oc1cncnc1N1CC2(CCN(C[C@@H]3CC[C@@H](NS(=O)(=O)N4CCC4)CO3)CC2)C1)C(C)C` [Example 69, 2-((4-(7-(((2S,5R)-5-(Azetidine-1-sulfonamido)tetrahydro-2H-pyran-2-yl)methyl)-2,7-diazaspiro[3.5]nonan-2-yl)pyrimidin-5-yl)oxy)-N-ethyl-5-fluoro-N-isopropylbenzamide], the “hERG % Remaining” value is “+++ (≥66%)” (10 μM compound); “++ (233% and ≤66%)” (30 μM compound).
As for `CCN(C(=O)c1cc(F)ccc1Oc1cncnc1N1CC2(CCN(C[C@@H]3CC[C@@H](NS(=O)(=O)NC)CO3)CC2)C1)C(C)C` [Example 76, N-Ethyl-5-fluoro-N-isopropyl-2-((4-(7-(((2S,5R)-5-((N-methylsulfamoyl)amino)tetrahydro-2H-pyran-2-yl)methyl)-2,7-diazaspiro[3.5]nonan-2-yl)pyrimidin-5-yl)oxy)benzamide], the “hERG % Remaining” value (10 μM compound) was “+++ (≥66%)” and the “hERG % Remaining” value (30 μM compound) is listed as “+++ (≥66%)”.
Consider `CC(C)N(C(=O)c1cc(F)ccc1Oc1cncnc1N1CC2(CCN(C[C@@H]3CC[C@@H](NS(=O)(=O)N4CCOCC4)CO3)CC2)C1)C(C)C` [Example 78, 5-Fluoro-N,N-diisopropyl-2-((4-(7-(((2S,5R)-5-(morpholine-4-sulfonamido)tetrahydro-2H-pyran-2-yl)methyl)-2,7-diazaspiro[3.5]nonan-2-yl)pyrimidin-5-yl)oxy)benzamide], for which the “hERG % Remaining” value is listed as “+++ (≥66%)” (10 μM compound) and “+++ (≥66%)” (30 μM compound).
Turning to `CC(C)N(C(=O)c1cc(F)ccc1Oc1cncnc1N1CC2(CCN(C[C@@H]3CC[C@@H](NS(=O)(=O)N4CCC4)CO3)CC2)C1)C(C)C` [Example 88, 2-((4-(7-(((2S,5R)-5-(Azetidine-1-sulfonamido)tetrahydro-2H-pyran-2-yl)methyl)-2,7-diazaspiro[3.5]nonan-2-yl)pyrimidin-5-yl)oxy)-5-fluoro-N,N-diisopropylbenzamide], the “hERG % Remaining” value (30 μM compound) was “+++ (≥66%)”.
For the compound `CC(C)N(C(=O)c1cc(F)ccc1Oc1cncnc1N1CC2(CCN(C[C@@H]3CC[C@@H](NS(=O)(=O)N(C)C(C)C)CO3)CC2)C1)C(C)C` [Example 89, 5-Fluoro-N,N-diisopropyl-2-((4-(7-(((2S,5R)-5-((N-isopropyl-N-methylsulfamoyl)amino)tetrahydro-2H-pyran-2-yl)methyl)-2,7-diazaspiro[3.5]nonan-2-yl)pyrimidin-5-yl)oxy)benzamide], where the note is “30 μM compound”, the “hERG % Remaining” value was “++ (233% and ≤66%)”.
Regarding `CC(C)N(C(=O)c1cc(F)ccc1Oc1cncnc1N1CC2(CCN(C[C@@H]3CC[C@@H](NS(N)(=O)=O)CO3)CC2)C1)C(C)C` [Example 90, 5-Fluoro-N,N-diisopropyl-2-((4-(7-(((2S,5R)-5-(sulfamoylamino)tetrahydro-2H-pyran-2-yl)methyl)-2,7-diazaspiro[3.5]nonan-2-yl)pyrimidin-5-yl)oxy)benzamide], the “hERG % Remaining” value runs as follows: (10 μM compound) “+++ (≥66%)”; (30 μM compound) “+++ (≥66%)”.
With `CC(C)N(C(=O)c1cc(F)ccc1Oc1cncnc1N1CC2(CCN(C[C@@H]3CC[C@@H](NS(=O)(=O)N(C)C)CO3)CC2)C1)C1CC1` [Example 93, N-Cyclopropyl-2-((4-(7-(((2S,5R)-5-((N,N-dimethylsulfamoyl)amino)tetrahydro-2H-pyran-2-yl)methyl)-2,7-diazaspiro[3.5]nonan-2-yl)pyrimidin-5-yl)oxy)-5-fluoro-N-isopropylbenzamide], the “hERG % Remaining” value is “+++ (≥66%)” (1 μM compound); “+++ (≥66%)” (3 μM compound); “+++ (≥66%)” (10 μM compound); “++ (233% and ≤66%)” (30 μM compound); “+ (<33%)” (100 μM compound).
Take `CC(C)N(CC(F)F)C(=O)c1cc(F)ccc1Oc1cncnc1N1CC2(CCN(C[C@@H]3CC[C@@H](NS(=O)(=O)N4CCOCC4)CO3)CC2)C1` [Example 94, N-(2,2-Difluoroethyl)-5-fluoro-N-isopropyl-2-((4-(7-(((2S,5R)-5-(morpholine-4-sulfonamido)tetrahydro-2H-pyran-2-yl)methyl)-2,7-diazaspiro[3.5]nonan-2-yl)pyrimidin-5-yl)oxy)benzamide]: the “hERG % Remaining” value runs as follows: (10 μM compound) “+++ (≥66%)”; (30 μM compound) “++ (233% and ≤66%)”.
Turning to `CC(C)N(CC(F)F)C(=O)c1cc(F)ccc1Oc1cncnc1N1CC2(CCN(C[C@@H]3CC[C@@H](NS(=O)(=O)N(C)C)CO3)CC2)C1` [Example 95, N-(2,2-Difluoroethyl)-2-((4-(7-(((2S,5R)-5-((N,N-dimethylsulfamoyl)amino)tetrahydro-2H-pyran-2-yl)methyl)-2,7-diazaspiro[3.5]nonan-2-yl)pyrimidin-5-yl)oxy)-5-fluoro-N-isopropylbenzamide], the “hERG % Remaining” value runs as follows: (10 μM compound) “+++ (≥66%)”; (30 μM compound) “++ (233% and ≤66%)”. Also, the “hERG IC50 (μM)” value (hERG stably transfected HEK 293 cells) is “+ (<25 PM)”.
